Source: PMC11785640, “Structure-based inhibition of acetylcholinesterase and butyrylcholinesterase with 2-Aryl-6-carboxamide benzoxazole derivatives: synthesis, enzymatic assay, and in silico studies” (Molecular Diversity, 2024)

How the values were obtained:
[1] = test system: AChE; settings: cited from earlier work
[2] = target: AChE (Electrophorus electricus, UniProt O42275); experiment: biochemical; format: biochemical; settings: for Ki: from Lineweaver-Burk graphs, mean ± SD, triplicate; for Selectivity index (AChE/BChE): ratio AChE/BChE
Protocol: (§1) These analogs were dissolved in DMSO at an initial concentration of 1 mg/mL. Around 1% of DMSO was present in the final reaction mixture. Acetylthiocholine iodide (AChI)/butyrylcholine iodide (BChI) were used as substrates for enzymatic reactions. […] The mixture was incubated at 20 °C for 20 min. Then, 50 µL of 5,5’-dithio-bis 2-nitro-benzoic acid (DTNB, 0.5 mM) and AChI/BChI were added and enzymatic reactions were initiated.
(§2) Lineweaver-Burk graphs were used for the calculation of Ki and the other parameters as described in prior studies. The Ki values were taken out from this graph. All analyses were conducted independently in triplicate, and result data are expressed as mean values ± SD [59].

[3] = target: BChE (Equus caballus, UniProt P81908); experiment: biochemical; format: biochemical; settings: for Ki: from Lineweaver-Burk graphs, mean ± SD, triplicate
Protocol: as §1, §2

Chain of AChE (Electrophorus electricus, UniProt O42275) (O42275 24-633): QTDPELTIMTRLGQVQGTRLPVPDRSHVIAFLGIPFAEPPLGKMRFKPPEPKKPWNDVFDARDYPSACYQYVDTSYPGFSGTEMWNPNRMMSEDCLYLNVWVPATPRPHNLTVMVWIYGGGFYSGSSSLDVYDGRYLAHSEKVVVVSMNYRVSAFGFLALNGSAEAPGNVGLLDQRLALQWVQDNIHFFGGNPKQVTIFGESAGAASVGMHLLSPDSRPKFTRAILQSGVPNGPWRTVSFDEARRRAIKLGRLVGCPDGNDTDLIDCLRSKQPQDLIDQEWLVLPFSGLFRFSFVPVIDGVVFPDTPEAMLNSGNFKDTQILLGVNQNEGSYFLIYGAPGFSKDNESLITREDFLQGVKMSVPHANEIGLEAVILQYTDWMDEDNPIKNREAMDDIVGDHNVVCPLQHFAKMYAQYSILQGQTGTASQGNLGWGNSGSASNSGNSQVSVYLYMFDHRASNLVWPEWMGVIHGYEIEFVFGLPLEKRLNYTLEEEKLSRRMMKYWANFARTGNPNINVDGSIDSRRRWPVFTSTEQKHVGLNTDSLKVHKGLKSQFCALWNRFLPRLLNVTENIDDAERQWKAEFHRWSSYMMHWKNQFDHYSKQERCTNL
Chain of BChE (P81908 whole entry): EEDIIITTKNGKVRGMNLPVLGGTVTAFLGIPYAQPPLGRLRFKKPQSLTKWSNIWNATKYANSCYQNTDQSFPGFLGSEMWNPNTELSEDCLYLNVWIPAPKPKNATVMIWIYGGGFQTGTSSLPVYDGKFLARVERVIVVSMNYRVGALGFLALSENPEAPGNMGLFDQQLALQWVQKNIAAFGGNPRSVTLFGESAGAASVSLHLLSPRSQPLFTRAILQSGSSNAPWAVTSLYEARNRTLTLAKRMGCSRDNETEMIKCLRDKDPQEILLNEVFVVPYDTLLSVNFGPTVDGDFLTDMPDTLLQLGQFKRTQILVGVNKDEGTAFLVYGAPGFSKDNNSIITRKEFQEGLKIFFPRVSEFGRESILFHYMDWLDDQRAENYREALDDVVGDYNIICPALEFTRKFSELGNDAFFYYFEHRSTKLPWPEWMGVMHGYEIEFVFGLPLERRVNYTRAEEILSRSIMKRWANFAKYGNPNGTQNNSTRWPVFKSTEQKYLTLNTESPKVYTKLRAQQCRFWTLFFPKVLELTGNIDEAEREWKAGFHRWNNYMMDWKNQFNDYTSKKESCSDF

Structure (SMILES)	IC50 [1]	concentration at which it inhibits AChE [1]	IC50 [2]	Ki [2]	Selectivity index (AChE/BChE) [2]	IC50 [3]	Ki [3]
CCN(CC)Cn1c(=S)oc2ccccc21 [Compound 6, 3-(diethylamino) methyl-2-thione benzoxazole]	38 nM						
S=c1oc2ccccc2n1CN1CCOCC1 [Compound 5, 3-morpholino methyl-2-thione benzoxazole]	44 nM						
Cc1ccc(CC(=O)Nc2ccc3nc(-c4ccccc4)oc3c2)cc1 [Compound 4]	38.4 nM						
CN(C)C(=O)Oc1ccccc1-c1nc2ccccc2o1 [Compound 1]		58.2 nM					
CCN(CC)C(=O)c1ccc2nc(-c3cccc4ccccc34)oc2c1 [Compound 20, N,Ndiethyl-2-(naphthalen-1-yl)benzo[d]oxazole-6-carboxamide]			53.6 nM	48.5 ± 9.97 nM	0.36	174 nM	136 ± 30.7 nM
O=C(c1ccc2nc(-c3cccc4ccccc34)oc2c1)N1CCCCC1 [Compound 23]			24.6 nM	20.2 ± 1.47 nM	0.29	98.3 nM	69.4 ± 11.3 nM
O=C(c1ccc2nc(-c3ccccc3)oc2c1)N1CCCCC1 [Compound 11]			21.4 nM	18.6 ± 2.58 nM	0.25	61.2 nM	74.4 ± 16.9 nM
CCN(CC)C(=O)c1ccc2nc(-c3cccs3)oc2c1 [Compound 44, N,N-2-(thiophen-2-yl)benzo[d]oxazole-6-carboxamide]			27.6 nM	15.7 ± 0.85 nM	0.27	75.4 nM	61 ± 11.1 nM
CCN(CC)C(=O)c1ccc2nc(-c3ccc[nH]3)oc2c1 [Compound 32, N,N-diethyl-2-(1 H-pyrrol-2-yl)benzo[d]oxazole-6-carboxamide]			41.7 nM	47.5 ± 9.8 nM	2.07	30.1 nM	23 ± 1.52 nM
CCN1CCN(CC(=O)Nc2ccc3nc(-c4ccc(C(C)(C)C)cc4)oc3c2)CC1 [Compound 3]	3.67 nM						
O=C(c1ccc2nc(-c3ccco3)oc2c1)N1CCCCC1 [Compound 41]			25.3 nM	30.7 ± 6.03 nM	0.41	80.1 nM	75.5 ± 18.4 nM
O=C(c1ccc2nc(-c3ccccc3)oc2c1)N1CCCC1 [Compound 10]			35.7 nM	46.5 ± 6.59 nM	1.27	51.4 nM	36.6 ± 11 nM
CN(C)C(=O)c1ccc2nc(-c3ccco3)oc2c1 [Compound 37, 2-(Furan-2-yl)-N,N-dimethylbenzo[d]oxazole-6-carboxamide]			46.4 nM	45.7 ± 4.3 nM	0.37	147 nM	123 ± 15.3 nM
CCCN(CCC)C(=O)c1ccc2nc(-c3ccccc3)oc2c1 [Compound 9, 2-Phenyl-N,Ndipropylbenzo[d]oxazole-6-carboxamide]			48.8 nM	59.4 ± 3.69 nM	0.53	116 nM	111 ± 4.67 nM
